The experiment has as its system polypeptide according to the invention (membrane receptor for steroids and sterols). The experiment is described as follows: Receptor binding studies (binding assay) with radiolabeled steroids and sterols. Set-up: species or system human. Conditions: qualitative statement in the description; no value given. The method, then: In addition, the invention relates to a test system for identifying effectors of a polypeptide according to the invention, whereby a polypeptide according to the invention is incubated as a complete or partial sequence thereof with a steroid, a steroid analog or a sterol, and the amount of bound steroid, steroid analog or sterol is detected. As a partial sequence, e.g., the area that comprises the “leucine-rich repeats” and the island domain or shorter strands thereof can be used. The binding of the effectors can be measured, e.g., by labeled substances being used and the labeling (e.g., radioactivity or fluorescence) being measured. A displacement reaction can also be measured, however, by a binding labeled steroid being used and the displacement of the labeling by the receptor being measured after the addition of the substances to be tested. […]
Crude extracts and cytosol fractions (0.04 ml) were incubated at 4° C. for 2 hours with 10 μl of radioactive steroid or sterol (concentration in the batch 10 nmol/l) either in the absence or in the presence of a 100× excess of a non-radioactive substance (for determining the unspecific bond). […] After centrifuging (5 minutes, 15,000 g), an aliquot of the supernatant was removed, and the radioactivity was determined by means of a scintillation counter. […]

Consider `CC(C)=CCC[C@@H](C)[C@H]1CC=C2C3=C(CC[C@@]21C)[C@@]1(C)CC[C@H](O)C(C)(C)[C@@H]1CC3` [FF-MAS], for which the “binding of the substance by the polypeptide according to the invention” value is “binds”.

Source of the values: patent US20030045699A1, “Membrane receptors for steroids and sterols” (priority 2001, published 2003).
